The text below walks through data of publication PMC8495455, “Discovery of a transdermally deliverable pentapeptide for activating AdipoR1 to promote hair growth” (EMBO Molecular Medicine, 2021).

One experiment deals with C57BL/6 (WT) mice. Put plainly: Mouse hair cycle modulation, hair cycle score, WT mice. The experiment is classed as in vivo. Conditions: for Gross morphology of dorsum: topical. The source says: First, we topically applied P5 and minoxidil as a positive control (Messenger & Rundegren, [2004]) on wildtype (WT) mouse. […] Overall, the hair cycle score was higher in the P5‐treated mice than vehicle‐treated mice (Fig 4B). […] Collectively, P5 induces anagen hair cycle in vivo.
For the hair cycle modulation experiment, Adipoq ^−/− (stock #008195; JAX) (Ma et al, [2002]), Adipor1 ^−/− (Yamauchi et al, [2007]; Okada‐Iwabu et al, [2013]), or C57BL/6 (KOATECH) female mice was used (Müller‐Röver et al, [2001]). They were housed (up to four animals per cage; 23 ± 2°C, 8:00–20:00, 12 h/12 h light/dark cycle). Mice were fed a standard chow diet and provided food and water ad libitum. Mice were randomly allocated and shaved dorsally at 7.5 weeks of age. Only mice in telogen were included for the further experiments (Müller‐Röver et al, [2001]). From 8 weeks of age, the shaved dorsal area was treated with vehicle control (ethanol and polyethylene glycol, 30% and 70% v/v), P5 (0.1 mM), or minoxidil (3%) every day. The mouse hair growth score (a value from 0 to 100 based on the skin pigmentation and hair shaft density) was monitored and documented at designated days with the experimenters being blind to the conditions, following a previous study (Chai et al, [2019]). A higher score corresponds to a transition from telogen to anagen. On day 35, we obtained dorsal cutaneous tissue for histological analysis: anagen induction scores (calculated using an assigned arbitrary score; telogen = 1, anagen I–VI = 2–7) (Müller‐Röver et al, [2001]).

Another experiment concerns Adipor1−/− mice. Put plainly: Mouse hair cycle modulation, hair cycle score, Adipor1−/− mice. The experiment is classed as in vivo. To be noted: n = 5 mice/group, 35 days. The source says:
To test whether the effect of P5 is mediated through AdipoR1 in vivo, we used Adipor1 ^−/− mice (Yamauchi et al, [2007]; Okada‐Iwabu et al, [2013]). […] Consistently, the anagen induction effects of P5 was abolished in the Adipor1 ^−/− mice (Fig 4I and J), in contrast to in WT mouse (Appendix Fig S2). […] Taken together, topical P5 treatment can accelerate hair growth through AdipoR1 in vivo.
For the hair cycle modulation experiment, Adipoq ^−/− (stock #008195; JAX) (Ma et al, [2002]), Adipor1 ^−/− (Yamauchi et al, [2007]; Okada‐Iwabu et al, [2013]), or C57BL/6 (KOATECH) female mice was used (Müller‐Röver et al, [2001]). They were housed (up to four animals per cage; 23 ± 2°C, 8:00–20:00, 12 h/12 h light/dark cycle). Mice were fed a standard chow diet and provided food and water ad libitum. Mice were randomly allocated and shaved dorsally at 7.5 weeks of age. […] The mouse hair growth score (a value from 0 to 100 based on the skin pigmentation and hair shaft density) was monitored and documented at designated days with the experimenters being blind to the conditions, following a previous study (Chai et al, [2019]). […] On day 35, we obtained dorsal cutaneous tissue for histological analysis: anagen induction scores (calculated using an assigned arbitrary score; telogen = 1, anagen I–VI = 2–7) (Müller‐Röver et al, [2001]). […]

The subject of experiment [1] is p-AMPK in human buttock skin. Put plainly: Topical application of P5 on human skin in vivo, p-AMPK (IF, Western blot). To be noted: topical 0.075, 0.75, 1.5, or 7.5 mM on buttock, occluded, 24 h; IF and Western blot. The source says: Next, we checked whether topically applied P5 can be delivered into human skin using ex vivo skin tissue culture model (Fig EV4A) (Haslam et al, [2018]). After topical application of vehicle or P5 on the ex vivo skin tissue, the dermal lysate of each tissue was examined by the qualitative mass spectrometry (MS). […] To trace the origin of P5, we used isotope‐marked P5 (P5*), in which carbon (^12C) atoms of Gly were substituted with isotope carbon atoms (^13C) increasing the molecular weight by 2 compared to that of original P5 (Fig EV4B). […] Collectively, P5 can be transdermally delivered into human skin.
Human ORS and DP cells or skin tissue were lysed (RIPA lysis buffer; #20‐188; Merck Millipore). The obtained protein was then separated by 8% SDS–PAGE and transferred to a polyvinylidene fluoride membrane (Amersham). The protein transferred membranes were incubated overnight with the specific antibodies. […] Antibody‐antigen complexes detected by enhanced chemiluminescent substrate (Thermo Fisher) were captured and quantified by Amersham imager 680 systems (GE Healthcare).
Paraffin‐embedded mouse cutaneous back tissue was sectioned (4 μm thickness) and stained with hematoxylin and eosin. […] IF intensity was observed and recorded with a Nikon Eclipse Ni‐E fluorescence microscope (Nikon). […]
In general terms: A western blot detects proteins with antibodies after separation by electrophoresis.

In the case of “GLYYF [P5, GST-fused (GST-P5) in pulldown assays]”, in the experiment with C57BL/6 (WT) mice (n = 16 mice/group, Two-way ANOVA), the “Hair cycle score vs vehicle” value was “higher”. For the same substance, the “Gross morphology of dorsum” value in the experiment with C57BL/6 (WT) mice (day 14) is “obvious pigmentation and hair”; with C57BL/6 (WT) mice (day 35) it was “manifested a black hair coat”. Moreover, the “Anagen induction effects / hair cycle scores vs vehicle” value in the experiment on Adipor1−/− mice is given as “abolished”. The “Phosphorylation of AMPK in human skin in vivo” value in experiment [1] was “induced the phosphorylation of AMPK in dermis as well as epidermis”.
